Data from the supplement of paper PMC10883282.
± gives the standard deviation of the averaged measurements.

Test system: A204
Experiment: relative viability vs DMSO control (72 h) (fraction); higher = more viable cells
In short: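 After seeding at densities set for 80–90% confluence in 384-well plates, sarcoma cell lines waited 24 h before 2.5 µl of serially diluted compound was added. Source plates held 10 mM down to 0.0002 mM. Plates were incubated 72 h at 37 °C with 5% CO2, with 0.1% DMSO vehicle and a 5 µM positive control, and relative viability was taken from ATPLite as percent growth averaged over up to triplicate wells, with 1 set as full and 0 as none.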

| Structure (SMILES) | relative viability (0.00017 µM) | relative viability (0.00051 µM) | relative viability (0.00152 µM) | relative viability (0.00457 µM) | relative viability (0.01372 µM) | relative viability (0.04115 µM) | relative viability (0.1235 µM) | relative viability (0.3704 µM) | relative viability (1.111 µM) | relative viability (3.333 µM) | relative viability (10 µM) |
| --- | --- | --- | --- | --- | --- | --- | --- | --- | --- | --- | --- |
| O=C(Nc1cnn2ccc(N3CCC[C@@H]3c3cc(F)ccc3F)nc12)N1CC[C@H](O)C1 [Larotrectinib] | 1.11 ± 0.015 | 1.1 ± 0.029 | 1.11 ± 0.037 | 1.06 ± 0.043 | 1.11 ± 0.039 | 1.08 ± 0.02 | 1.09 ± 0.046 | 1.11 ± 0.04 | 1.06 ± 0.057 | 1.115 ± 0.011 | 1.09 ± 0.016 |
| COCc1c(-c2cc3cc(C)cc(OC)c3s2)c2c(N)ncnn2c1CN1CCNC(=O)C1 [Rogaratinib] | 1.09 ± 0.039 | 1.07 ± 0.069 | 1.09 ± 0.036 | 1.08 ± 0.019 | 1.05 ± 0.039 | 0.95 ± 0.058 | 0.827 ± 0.048 | 0.631 ± 0.043 | 0.548 ± 0.008 | 0.44 ± 0.014 | 0.268 ± 0.025 |
| Cn1cnc2c(F)c(Nc3ccc(Br)cc3F)c(C(=O)NOCCO)cc21 [Binimetinib] | 1.04 ± 0.031 | 1.06 ± 0.029 | 1.063 ± 0.0083 | 1.07 ± 0.019 | 1.04 ± 0.015 | 1.02 ± 0.043 | 1.02 ± 0.023 | 0.9365 ± 0.0019 | 0.922 ± 0.023 | 0.902 ± 0.038 | 0.713 ± 0.023 |
| Cn1cc(-c2cc3c(N4CCN(c5ncc([C@@](C)(N)c6ccc(F)cc6)cn5)CC4)ncnn3c2)cn1 [Avapritinib] | 1.02 ± 0.02 | 1.06 ± 0.024 | 1.05 ± 0.023 | 1.05 ± 0.063 | 1.02 ± 0.056 | 0.959 ± 0.061 | 0.77 ± 0.019 | 0.507 ± 0.013 | 0.359 ± 0.024 | 0.282 ± 0.017 | 0.212 ± 0.012 |
| C[C@]1(O)C[C@@H](c2nc(-c3ccc4ccc(-c5ccccc5)nc4c3)c3c(N)nccn32)C1 [Linsitinib] | 1.08 ± 0.049 | 1.05 ± 0.058 | 1.05 ± 0.021 | 1.06 ± 0.05 | 1.03 ± 0.017 | 1.03 ± 0.048 | 1.04 ± 0.087 | 0.99 ± 0.077 | 0.907 ± 0.063 | 0.755 ± 0.097 | 0.476 ± 0.017 |
| Cc1cc(Nc2ncnc3ccc(NC4=NC(C)(C)CO4)cc23)ccc1Oc1ccn2ncnc2c1 [Tucatinib] | 1.092 ± 0.0055 | 1.08 ± 0.021 | 1.08 ± 0.024 | 1.1 ± 0.016 | 1.1 ± 0.012 | 1.08 ± 0.011 | 1.09 ± 0.025 | 1.02 ± 0.052 | 1.02 ± 0.067 | 0.985 ± 0.13 | 0.636 ± 0.034 |
| Nc1cc(C(F)(F)F)c(-c2cc(N3CCOCC3)nc(N3CCOCC3)n2)cn1 [Buparlisib] | 1.05 ± 0.023 | 1.03 ± 0.021 | 1.05 ± 0.032 | 1.02 ± 0.013 | 1.03 ± 0.065 | 1.01 ± 0.038 | 0.879 ± 0.021 | 0.673 ± 0.011 | 0.332 ± 0.066 | 0.174 ± 0.0058 | 0.155 ± 0.0086 |
| C[C@@H]1CCN(C(=O)CC#N)C[C@@H]1N(C)c1ncnc2[nH]ccc12 [Tofacitinib] | 1.09 ± 0.031 | 1.09 ± 0.014 | 1.04 ± 0.046 | 1.08 ± 0.023 | 1.06 ± 0.064 | 1.04 ± 0.094 | 1.02 ± 0.052 | 1.06 ± 0.017 | 1.04 ± 0.057 | 1.02 ± 0.014 | 0.99 ± 0.033 |
| COc1cc2/c(=N/c3ccc(Br)cc3F)nc[nH]c2cc1OCC1CCN(C)CC1 [Vandetanib] | 1.04 ± 0.076 | 1.02 ± 0.018 | 1.02 ± 0.049 | 1.03 ± 0.067 | 1.04 ± 0.046 | 1 ± 0.067 | 0.981 ± 0.057 | 0.93 ± 0.07 | 0.706 ± 0.039 | 0.348 ± 0.073 | 0.0148 ± 0.0046 |
| CCCS(=O)(=O)Nc1ccc(F)c(C(=O)c2c[nH]c3ncc(-c4ccc(Cl)cc4)cc23)c1F [Vemurafenib] | 1.066 ± 0.009 | 1.09 ± 0.011 | 1.07 ± 0.067 | 1.09 ± 0.043 | 1.08 ± 0.047 | 1.07 ± 0.018 | 1.07 ± 0.038 | 1.11 ± 0.025 | 1.12 ± 0.027 | 1.02 ± 0.054 | 0.617 ± 0.029 |
| C=CC(=O)N1CCC([C@@H]2CCNc3c(C(N)=O)c(-c4ccc(Oc5ccccc5)cc4)nn32)CC1 [Zanubrutinib] | 1.02 ± 0.029 | 0.991 ± 0.041 | 1 ± 0.046 | 1.02 ± 0.033 | 1.013 ± 0.0088 | 0.969 ± 0.019 | 1.02 ± 0.049 | 0.944 ± 0.084 | 0.897 ± 0.071 | 0.871 ± 0.023 | 0.764 ± 0.03 |
| CC(=O)Nc1cccc(-n2c(=O)n(C3CC3)c(=O)c3c(Nc4ccc(I)cc4F)n(C)c(=O)c(C)c32)c1 [Trametinib] | 1.08 ± 0.084 | 1.08 ± 0.05 | 1.09 ± 0.034 | 1.08 ± 0.035 | 1.04 ± 0.047 | 0.977 ± 0.06 | 0.77 ± 0.071 | 0.576 ± 0.024 | 0.544 ± 0.022 | 0.536 ± 0.0082 | 0.491 ± 0.015 |
| C=CC(=O)N1CCC[C@@H](n2nc(-c3ccc(Oc4ccccc4)cc3)c3c(N)ncnc32)C1 [Ibrutinib] | 1.03 ± 0.019 | 1.06 ± 0.11 | 1.04 ± 0.057 | 1.07 ± 0.059 | 1.05 ± 0.048 | 1.09 ± 0.034 | 1.07 ± 0.095 | 1.07 ± 0.026 | 1.008 ± 0.0098 | 0.939 ± 0.13 | 0.525 ± 0.026 |
| Cc1ccc(F)c(NC(=O)Nc2ccc(-c3cccc4[nH]nc(N)c34)cc2)c1 [Linifanib] | 1.07 ± 0.037 | 1.11 ± 0.047 | 1.08 ± 0.037 | 1.073 ± 0.0063 | 1.06 ± 0.02 | 0.973 ± 0.13 | 0.659 ± 0.03 | 0.469 ± 0.066 | 0.435 ± 0.034 | 0.414 ± 0.032 | 0.439 ± 0.01 |
| CC[C@H](Nc1ncnc2[nH]cnc12)c1nc2cccc(F)c2c(=O)n1-c1ccccc1 [Idelalisib] | 1.08 ± 0.023 | 1.1 ± 0.043 | 1.1 ± 0.032 | 1.1 ± 0.046 | 1.07 ± 0.081 | 1.06 ± 0.041 | 1.03 ± 0.023 | 1.02 ± 0.021 | 0.973 ± 0.067 | 0.835 ± 0.015 | 0.61 ± 0.033 |
| CC(C)(C)c1cc(NC(=O)Nc2ccc(-c3cn4c(n3)sc3cc(OCCN5CCOCC5)ccc34)cc2)no1 [Quizartinib] | 1.05 ± 0.035 | 1.08 ± 0.02 | 1.06 ± 0.032 | 1.08 ± 0.023 | 1.067 ± 0.0075 | 0.946 ± 0.039 | 0.752 ± 0.052 | 0.472 ± 0.011 | 0.42 ± 0.02 | 0.369 ± 0.032 | 0.396 ± 0.021 |
| CNC(=O)c1cc(Oc2ccc(NC(=O)Nc3ccc(Cl)c(C(F)(F)F)c3)c(F)c2)ccn1 [Regorafenib] | 1.06 ± 0.046 | 1.07 ± 0.05 | 1.05 ± 0.067 | 1.08 ± 0.051 | 1.079 ± 0.0072 | 1.05 ± 0.032 | 0.987 ± 0.06 | 0.589 ± 0.033 | 0.434 ± 0.0088 | 0.305 ± 0.033 | 0.219 ± 0.0053 |
| CNC(=O)c1ccc(-c2cnc3ncc(Cc4ccc5ncccc5c4)n3n2)cc1F [Capmatinib] | 1.1 ± 0.029 | 1.07 ± 0.019 | 1.08 ± 0.04 | 1.08 ± 0.024 | 1.07 ± 0.038 | 1.06 ± 0.015 | 1.1 ± 0.02 | 1.07 ± 0.054 | 1.04 ± 0.027 | 0.984 ± 0.054 | 0.787 ± 0.035 |
